Target: SHP2 (Homo sapiens (Human), UniProt Q06124)
Assay: SHP2 Allosteric Inhibition Assay (DiFMUP prompt fluorescence)
Assay type: biochemical
Details: 0.5 nM SHP2 activated with 0.5 μM peptide IRS1_pY1172(dPEG8)pY1222; substrate DiFMUP; 25° C.

Chain of SHP2 (Q06124 whole entry): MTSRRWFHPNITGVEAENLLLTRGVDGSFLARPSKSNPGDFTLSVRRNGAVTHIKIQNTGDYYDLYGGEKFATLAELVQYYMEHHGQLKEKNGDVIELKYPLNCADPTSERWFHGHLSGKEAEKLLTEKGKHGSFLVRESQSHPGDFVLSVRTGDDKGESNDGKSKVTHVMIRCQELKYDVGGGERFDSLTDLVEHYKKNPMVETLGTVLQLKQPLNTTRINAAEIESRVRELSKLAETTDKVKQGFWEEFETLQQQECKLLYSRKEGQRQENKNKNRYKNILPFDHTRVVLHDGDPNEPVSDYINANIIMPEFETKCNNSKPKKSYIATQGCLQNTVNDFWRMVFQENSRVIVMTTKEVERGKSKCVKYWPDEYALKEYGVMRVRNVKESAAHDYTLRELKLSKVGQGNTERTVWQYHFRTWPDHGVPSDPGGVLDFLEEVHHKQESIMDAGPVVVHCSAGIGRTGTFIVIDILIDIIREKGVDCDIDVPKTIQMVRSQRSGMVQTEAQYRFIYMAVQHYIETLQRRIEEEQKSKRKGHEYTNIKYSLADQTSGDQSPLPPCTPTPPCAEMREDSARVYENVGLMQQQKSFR

| SMILES | IC50 [nM] |
| --- | --- |
| C[C@]1(CN)CCN(c2cnc(-c3cccc(Cl)c3Cl)c(N)n2)C[C@H]1O (single isomer, unassigned) [11 P1] | 38 |
| C[C@]1(CN)CCN(c2cnc(-c3cccc(Cl)c3Cl)c(N)n2)C[C@H]1O (single isomer, unassigned) [11 P2] | 164 |
